Assay results from ChEMBL document CHEMBL4308875, “Synthesis, antituberculosis studies and biological evaluation of new quinoline derivatives carrying 1,2,4-oxadiazole moiety” (Bioorg Med Chem Lett, 2019).
≈ marks a conversion by molar mass, not a printed value.

Assays:
[1] = test system: Mycobacterium tuberculosis; experiment: Antitubercular activity against Mycobacterium tuberculosis H37Rv after 15 days by turbidometric method; type: functional; details: 360 h
[2] = Metabolic stability in human liver microsomes assessed as compound remaining at 1 uM after 15 mins in presence of G-6-P, G-6-PDH, MgCl2 and NADP+ by LC-MS/MS analysis (reference value: 100%)
[3] = Metabolic stability in human liver microsomes assessed as compound remaining at 1 uM after 30 mins in presence of G-6-P, G-6-PDH, MgCl2 and NADP+ by LC-MS/MS analysis (reference value: 100%)
[4] = test system: Escherichia coli; experiment: Antibacterial activity against Escherichia coli ATCC 25922 after 15 days by turbidometric method; type: functional; details: ATCC 25922, 360 h
[5] = test system: Acinetobacter baumannii; experiment: Antibacterial activity against Acinetobacter baumannii ATCC 19606 after 15 days by turbidometric method; type: functional; details: ATCC 19606 = CIP 70.34 = JCM 6841
[6] = test system: Staphylococcus aureus; experiment: Antibacterial activity against Staphylococcus aureus ATCC 33591 after 15 days by turbidometric method; type: functional; details: ATCC 33591, 360 h
[7] = test system: Enterococcus faecium; experiment: Antibacterial activity against Enterococcus faecium ATCC 51559 after 15 days by turbidometric method; type: functional; details: ATCC 51559, 360 h
[8] = test system: Pseudomonas aeruginosa; experiment: Antibacterial activity against Pseudomonas aeruginosa ATCC 15442 after 15 days by turbidometric method; type: functional; details: ATCC 15442, 360 h
[9] = test system: Klebsiella pneumoniae; experiment: Antibacterial activity against Klebsiella pneumoniae ATCC 700603 after 15 days by turbidometric method; type: functional; details: Klebsiella pneumoniae, 700603, 360 h
[10] = test system: HepG2; experiment: Cytotoxicity against human HepG2 cells after 24 hrs by MTT assay; type: cell-based; details: HepG2, 24 h
[11] = Metabolic stability in human liver microsomes assessed as compound remaining at 1 uM after 60 mins in presence of G-6-P, G-6-PDH, MgCl2 and NADP+ by LC-MS/MS analysis (reference value: 100%)
[12] = Metabolic stability in human liver microsomes assessed as compound remaining at 1 uM after 120 mins in presence of G-6-P, G-6-PDH, MgCl2 and NADP+ by LC-MS/MS analysis (reference value: 100%)
[13] = Metabolic stability in human liver microsomes assessed as compound remaining at 1 uM after 120 mins by LC-MS/MS analysis (reference value: 100%)
[14] = Cmax in BALB/c mouse at 30 mg/kg, po; type: ADME, organism-based; set-up: dose 30 mg/kg, route oral; details: in vivo
[15] = Tmax in BALB/c mouse at 30 mg/kg, po; type: ADME, organism-based; details: in vivo
[16] = AUClast in BALB/c mouse at 30 mg/kg, po; type: ADME, organism-based; set-up: dose 30 mg/kg, route oral, time 0 - last; details: in vivo
[17] = AUC (infinity) in BALB/c mouse at 30 mg/kg, po; type: ADME, organism-based; set-up: dose 30 mg/kg, time infinity, route oral; details: in vivo
[18] = Extrapolated AUC in BALB/c mouse at 30 mg/kg, po; type: ADME, organism-based; details: in vivo
[19] = Half life in BALB/c mouse at 30 mg/kg, po; type: ADME, organism-based; details: in vivo
[20] = MRTlast in BALB/c mouse at 30 mg/kg, po; type: ADME, organism-based; details: in vivo
[21] = test system: Mycobacterium tuberculosis; experiment: Bacteriostatic activity against Mycobacterium tuberculosis H37Rv assessed as colony forming units at 0.002 to 64 ug/ml measured day 3 post dose by time kill assay (reference value: 0 log10CFU/ml); type: functional
[22] = test system: Mycobacterium tuberculosis; experiment: Bacteriostatic activity against Mycobacterium tuberculosis H37Rv assessed as colony forming units at 0.002 to 64 ug/ml measured day 7 post dose by time kill assay (reference value: 0 log10CFU/ml); type: functional
[23] = test system: Mycobacterium tuberculosis; experiment: Bacteriostatic activity against Mycobacterium tuberculosis H37Rv assessed as colony forming units at 0.002 to 64 ug/ml measured day 14 post dose by time kill assay (reference value: 0 log10CFU/ml); type: functional
[24] = test system: Mycobacterium tuberculosis; experiment: Bacteriostatic activity against Mycobacterium tuberculosis H37Rv assessed as colony forming units at 0.002 to 64 ug/ml measured day 21 post dose by time kill assay (reference value: 0 log10CFU/ml); type: functional

COc1cc(OC)cc(-c2nc(CN3CCN(c4ccnc5cc(Cl)ccc45)CC3)no2)c1
MIC [1]: 32 µg/mL (≈ 68.7 µM)

Clc1ccc2c(N3CCN(Cc4noc(C5CCCC5)n4)CC3)ccnc2c1
MIC [1]: 32 µg/mL (≈ 80.4 µM)

Fc1cc(F)cc(-c2ccc3c(N4CCN(Cc5noc(C6CCCC6)n5)CC4)ccnc3c2)c1
MIC [1]: 128 µg/mL (≈ 269 µM)

COc1cc(OC)cc(-c2nc(CN3CCN(c4ccnc5cc(-c6ccncc6)ccc45)CC3)no2)c1
MIC [1]: > 128 µg/mL

c1cncc(-c2ccc3c(N4CCN(Cc5noc(C6CCCC6)n5)CC4)ccnc3c2)c1
remaining at 0.25 h, 1 µM [2]: 60.8% | remaining at 0.5 h, 1 µM [3]: 54.8% | MIC [1]: 0.25 µg/mL (≈ 0.567 µM) | MIC [4]: 256 µg/mL (≈ 581 µM) | MIC [5]: 512 µg/mL (≈ 1160 µM) | MIC [6]: 512 µg/mL (≈ 1160 µM) | MIC [7]: 64 µg/mL (≈ 145 µM) | MIC [8]: 512 µg/mL (≈ 1160 µM) | MIC [9]: 256 µg/mL (≈ 581 µM) | IC50 [10]: > 50 µM | remaining at 1 h, 1 µM [11]: 38% | remaining at 2 h, 1 µM [12]: 21.9% | remaining at 2 h, 1 µM [13]: 97.8% | Cmax [14]: 9600 ng/mL | Tmax [15]: 0.5 h | AUC(0-t) [16]: 20000 ng·h/mL | AUC(0-inf) [17]: 20200 ng·h/mL | %AUCextra [18]: 0.71% | half-life [19]: 0.75 h | MRT last [20]: 1.31 h

COc1ccc(CCN2CCC(Nc3nc4ccccc4n3Cc3ccc(F)cc3)CC2)cc1 [ASTEMIZOLE]
IC50 [10]: 7.97 µM

CN[C@H](CC(C)C)C(=O)N[C@H]1C(=O)N[C@@H](CC(N)=O)C(=O)N[C@H]2C(=O)N[C@H]3C(=O)N[C@H](C(=O)N[C@H](C(=O)O)c4cc(O)cc(O)c4-c4cc3ccc4O)[C@H](O)c3ccc(c(Cl)c3)Oc3cc2cc(c3O[C@@H]2O[C@H](CO)[C@@H](O)[C@H](O)[C@H]2O[C@H]2C[C@](C)(N)[C@H](O)[C@H](C)O2)Oc2ccc(cc2Cl)[C@H]1O [VANCOMYCIN]
MIC [4]: > 512 µg/mL | MIC [5]: 256 µg/mL (≈ 177 µM) | MIC [7]: < 1 µg/mL | MIC [8]: 512 µg/mL (≈ 353 µM) | MIC [9]: 512 µg/mL (≈ 353 µM)

Cc1cccc(-c2nc(CN3CCN(c4ccnc5cc(-c6cc(F)cc(F)c6)ccc45)CC3)no2)c1C
MIC [1]: 32 µg/mL (≈ 62.6 µM)

CC(C)c1ccc(-c2nc(CN3CCN(c4ccnc5cc(-c6ccncc6)ccc45)CC3)no2)cc1
MIC [1]: 2 µg/mL (≈ 4.08 µM)

CC(C)c1ccc(-c2nc(CN3CCN(c4ccnc5cc(Cl)ccc45)CC3)no2)cc1
remaining at 0.25 h, 1 µM [2]: 82% | remaining at 0.5 h, 1 µM [3]: 67.2% | MIC [1]: 0.5 µg/mL (≈ 1.12 µM) | MIC [4]: > 32 µg/mL | MIC [5]: > 32 µg/mL | MIC [6]: > 32 µg/mL | MIC [7]: > 32 µg/mL | MIC [8]: > 32 µg/mL | MIC [9]: > 32 µg/mL | IC50 [10]: > 100 µM | remaining at 1 h, 1 µM [11]: 55.3% | remaining at 2 h, 1 µM [12]: 39.7% | remaining at 2 h, 1 µM [13]: 89.2% | Cmax [14]: 2500 ng/mL | Tmax [15]: 1 h | AUC(0-t) [16]: 5270 ng·h/mL | AUC(0-inf) [17]: 5330 ng·h/mL | %AUCextra [18]: 1.17% | half-life [19]: 1.63 h | MRT last [20]: 1.5 h | Emax [21]: 0.2 log10CFU/ml | Emax [22]: 1.1 log10CFU/ml | Emax [23]: 0.9 log10CFU/ml | Emax [24]: 0.9 log10CFU/ml

N#Cc1cccc(-c2nc(CN3CCN(c4ccnc5cc(Cl)ccc45)CC3)no2)c1
MIC [1]: 64 µg/mL (≈ 149 µM)

c1cc(-c2ccc3c(N4CCN(Cc5noc(C6CCCC6)n5)CC4)ccnc3c2)ccn1
MIC [1]: 2 µg/mL (≈ 4.54 µM)

N#Cc1cccc(-c2nc(CN3CCN(c4ccnc5cc(-c6ccncc6)ccc45)CC3)no2)c1
MIC [1]: 32 µg/mL (≈ 67.6 µM)
